Experimental data from patent US9399649B2, “Compounds for treating spinal muscular atrophy” (PTC Therapeutics Inc., priority 2012, dated 2016).

Key:
[1] = tested on: full length SMN2 minigene mRNA containing SMN2 exon 7; assay: SMN2 minigene mRNA splicing RT-qPCR assay in cultured cells; assay type: cell-based, human; settings: Homo sapiens, HEK293-H; HEK293H cells stably transfected with SMN2-A minigene, 24 hours, 7-point concentration curve; concentration giving 1.5-fold full length SMN2 mRNA vs vehicle; read-out: EC1.5x for production of full length SMN2 mRNA
Protocol: The reverse transcription-quantitative PCR-based (RT-qPCR) assay is used to quantify the level of the full length SMN2 minigene mRNA containing SMN2 exon 7 in a HEK293H cell line stably transfected with said minigene and treated with a test compound.
HEK293H cells stably transfected with the SMN2-A minigene construct described above (10,000 cells/well) are seeded in 200 ut, of cell culture medium (DMEM plus 10% FBS, with 200 μg/mL hygromycin) in 96-well flat-bottom plates and the plate is immediately swirled to ensure proper dispersal of cells, forming an even monolayer of cells. Cells are allowed to attach for at least 4-6 hours. Test compounds are serially diluted 3.16-fold in 100% DMSO to generate a 7-point concentration curve. A solution of test compound (1 μL, 200× in DMSO) is added to each cell-containing well and the plate is incubated for 24 hours in a cell culture incubator (37° C., 5% CO2, 100% relative humidity). 2 replicates are prepared for each test compound concentration. The cells are then lysed in Cells-To-Ct lysis buffer and the lysate is stored at −80° C.
Primer SMN Forward A (SEQ ID NO. 1) hybridizes to a nucleotide sequence in exon 7 (nucleotide 22 to nucleotide 40), primer SMN Reverse A (SEQ ID NO. 2) hybridizes to a nucleotide sequence in the coding sequence of Firefly luciferase, SMN Probe A (SEQ ID NO. 3) hybridizes to a nucleotide sequence in exon 7 (nucleotide 50 to nucleotide 54) and exon 8 (nucleotide 1 to nucleotide 21). The combination of these three oligonucleotides detects only SMN1 or SMN2 minigenes (RT-qPCR) and will not detect endogenous SMN1 or SMN2 genes.
The SMN forward and reverse primers are used at final concentrations of 0.4 μM. The SMN probe is used at a final concentration of 0.15 μM. The GAPDH primers are used at final concentrations of 0.2 μM and the probe at 0.15 μM.
The SMN2-minigene GAPDH mix (15 μL total volume) is prepared by combining 7.5 μL of 2×RT-PCR buffer, 0.4 μL of 25×RT-PCR enzyme mix, 0.75 μL of 20×GAPDH primer-probe mix, 4.0075 μL of water, 2 μL of 10-fold diluted cell lysate, 0.06 μL of 100 μM SMN forward primer, 0.06 μL of 100 μM SMN reverse primer, and 0.225 μL of 100 μM SMN probe.
PCR is carried out at the following temperatures for the indicated time: Step 1: 48° C. (15 min); Step 2: 95° C. (10 min); Step 3: 95° C. (15 sec); Step 4: 60° C. (1 min); then repeat Steps 3 and 4 for a total of 40 cycles.
Each reaction mixture contains both SMN2-A minigene and GAPDH primersprobe sets (multiplex design), allowing simultaneous measurement of the levels of two transcripts.
Two SMN spliced products are generated from the SMN2 minigene. The first spliced product containing exon 7, corresponding to full length SMN2 mRNA, is referred to herein using the term “SMN2 minigene FL.” The second spliced product lacking exon 7 is referred to herein using the term “SMN2 minigene Δ7.”
The increase of SMN2 minigene FL mRNA relative to that in cells treated with vehicle control is determined from real-time PCR data using a modified ΔΔCt method (as described in Livak and Schmittgen, Methods, 2001, 25:402-8). The amplification efficiency (E) is calculated from the slope of the amplification curve for SMN2 minigene FL and GAPDH individually. The abundances of SMN2 minigene FL and GAPDH are then calculated as (1+E)^−Ct, where Ct is the threshold value for each amplicon. The abundance of SMN2 minigene FL is normalized to GAPDH abundance. The normalized SMN2 minigene FL abundance from test compound-treated samples is then divided by normalized SMN2 minigene FL abundance from vehicle-treated cells to determine the level of SMN2 FL mRNA relative to vehicle control.

Smn protein = Smn protein assay in cultured cells (SMN HTRF); assay type: cell-based, human; settings: SMA patient fibroblast cells (GM03813), 48 hours; for EC1.5x for Smn protein expression: 7-point concentration curve, concentration producing 1.5 times Smn protein vs DMSO vehicle; for maximum fold (Fold) increase of Smn protein: 7-point concentration data, relative to vehicle control
Protocol: The SMN HTRF (homogeneous time resolved fluorescence) assay is used to quantify the level of Smn protein in SMA patient fibroblast cells treated with test compounds.
Cells are thawed and cultured in DMEM-10% FBS for 72 hours. Cells are trypsinized, counted and re-suspended to a concentration of 25,000 cells/mL in DMEM-10% FBS. The cell suspensions are plated at 5,000 cells per well in a 96 well microtiter plate and incubated for 3 to 5 hours. […] Test compounds are serially diluted 3.16-fold in 100% DMSO to generate a 7-point concentration curve. 1 μL of test compound solution is transferred to cell-containing wells and cells are incubated for 48 hours in a cell culture incubator (37° C., 5% CO2, 100% relative humidity). Triplicate samples are set up for each test compound concentration. After 48 hours, the supernatant is removed from the wells and 25 μL of the RIPA lysis buffer, containing protease inhibitors, is added to the wells and incubated with shaking at room temperature for 1 hour. 25 μL of the diluent is added and then 35 μL of the resulting lysate is transferred to a 384-well plate, where each well contains 5 μL of the antibody solution (1:100 dilution of anti-SMN d2 and anti-SMN kryptate in SMN reconstitution buffer). The plate is centrifuged for 1 minute to bring the solution to the bottom of the wells, then incubated overnight at room temperature. Fluorescence for each well of the plate at 665 nm and 620 nm is measured on an EnVision multilabel plate reader (Perkin-Elmer).
The normalized fluorescence signal is calculated for each sample, Blank and vehicle control well by dividing the signal at 665 nm by the signal at 620 nm. Normalizing the signal accounts for possible fluorescence quenching due to the matrix effect of the lysate. The ΔF value (a measurement of Smn protein abundance as a percent value) for each sample well is calculated by subtracting the normalized average fluorescence for the Blank control wells from the normalized fluorescence for each sample well, then dividing this difference by the normalized average fluorescence for the Blank control wells and multiplying the resulting value by 100. The ΔF value for each sample well represents the Smn protein abundance from test compound-treated samples. The ΔF value for each sample well is divided by the ΔF value for the vehicle control wells to calculate the fold increase in Smn protein abundance relative to the vehicle control.

Question: Which results are given for `Cc1cn2cc(-c3cc4ccc(N5C[C@@H](C)N[C@@H](C)C5)cc4c(=O)o3)nc2cn1` [Cpd 58, 7-[(3R,5S)-3,5-dimethylpiperazin-1-yl]-3-(6-methylimidazo[1,2-a]pyrazin-2-yl)-1H-isochromen-1-one]?
Answer: EC (1.5-fold) [1]: ≤ 0.1 µM; EC1.5x for Smn protein expression (Smn protein): **** (an EC1.5×≦0.3 nM is indicated by four stars (****)); maximum fold (Fold) increase of Smn protein (Smn protein): ***** (a fold increase >1.65 is indicated by five stars (*****)); melting point: 279 to 281 °C

Question: For `Cc1cn2cc(-c3cc4ccc(N5CCN(C)CC5)cc4c(=O)o3)nc2cn1` [Cpd 122, 3-(6-methylimidazo[1,2-a]pyrazin-2-yl)-7-(4-methylpiperazin-1-yl)-1H-isochromen-1-one], which EC (1.5-fold) [1] is on record?
Answer: ≤ 0.1 µM

Question: And the “EC1.5x for Smn protein expression” value (Smn protein)?
Answer: **** (an EC1.5×≦0.3 nM is indicated by four stars (****))

Question: What about the “maximum fold (Fold) increase of Smn protein” value (from here on “maximum fold (Fold) increase”) (Smn protein) of the same compound?
Answer: ***** (a fold increase >1.65 is indicated by five stars (*****))

Question: What about the melting point of the same compound?
Answer: 279 to 285 °C

Question: What does the source list for `Cc1cn2cc(-c3cc4ccc(N5CCNCC5)cc4c(=O)o3)nc2cn1` [Cpd 56, 3-(6-methylimidazo[1,2-a]pyrazin-2-yl)-7-(piperazin-1-yl)-1H-isochromen-1-one]?
Answer: EC (1.5-fold) [1]: ≤ 0.1 µM; EC1.5x for Smn protein expression (Smn protein): **** (an EC1.5×≦0.3 nM is indicated by four stars (****)); maximum fold (Fold) increase of Smn protein (Smn protein): ***** (a fold increase >1.65 is indicated by five stars (*****)); melting point: 225 to 227 °C

Question: For `Cc1cn2cc(-c3cc4ccc(C5CCN(C6CCC6)CC5)cc4c(=O)o3)nc2c(C)n1` [Cpd 118, 7-(1-cyclobutylpiperidin-4-yl)-3-(6,8-dimethylimidazo[1,2-a]pyrazin-2-yl)-1H-isochromen-1-one], which EC (1.5-fold) [1] is on record?
Answer: ≤ 0.1 µM

Question: What about the “EC1.5x for Smn protein expression” value (Smn protein) of the same compound?
Answer: **** (an EC1.5×≦0.3 nM is indicated by four stars (****))

Question: What about the “maximum fold (Fold) increase” value (Smn protein) of the same compound?
Answer: **** (a fold increase between >1.5 and ≦1.65 is indicated by four stars (****))

Question: With `Cc1cn2cc(-c3cc4ccc(N5CCN(CCO)[C@H](C)C5)cc4c(=O)o3)nc2cn1` [Cpd 133, 7-[(3R)-4-(2-hydroxyethyl)-3-methylpiperazin-1-yl]-3-(6-methylimidazo[1,2-a]pyrazin-2-yl)-1H-isochromen-1-one] as the compound, how does the EC (1.5-fold) [1] read?
Answer: ≤ 0.1 µM

Question: What about the “EC1.5x for Smn protein expression” value (Smn protein) of the same compound?
Answer: **** (an EC1.5×≦0.3 nM is indicated by four stars (****))

Question: And the “maximum fold (Fold) increase” value (Smn protein)?
Answer: ***** (a fold increase >1.65 is indicated by five stars (*****))

Question: For `COc1ccc(-c2cc3ccc(N4CCN(C)CC4)cc3c(=O)o2)cc1OC` [Cpd 16, 3-(3,4-dimethoxyphenyl)-7-(4-methylpiperazin-1-yl)-1H-isochromen-1-one], which EC (1.5-fold) [1] is on record?
Answer: 0.3 to 1 µM

Question: And the “maximum fold (Fold) increase” value (Smn protein)?
Answer: *** (a fold increase between >1.35 and ≦1.5 is indicated by three stars (***))

Question: With `Cc1cn2cc(-c3cc4ccc(N5CCN(CCO)[C@@H](C)C5)cc4c(=O)o3)nc2c(C)n1` [Cpd 134, 3-(6,8-dimethylimidazo[1,2-a]pyrazin-2-yl)-7-[(3S)-4-(2-hydroxyethyl)-3-methylpiperazin-1-yl]-1H-isochromen-1-one] as the compound, how does the EC (1.5-fold) [1] read?
Answer: ≤ 0.1 µM

Question: What about the “EC1.5x for Smn protein expression” value (Smn protein) of the same compound?
Answer: **** (an EC1.5×≦0.3 nM is indicated by four stars (****))

Question: What about the “maximum fold (Fold) increase” value (Smn protein) of the same compound?
Answer: ***** (a fold increase >1.65 is indicated by five stars (*****))

Question: Which EC (1.5-fold) [1] does the source give for `CCc1nc(C)cn2cc(-c3cc4ccc(N5CCNCC5)cc4c(=O)o3)nc12` [Cpd 150, 3-(8-ethyl-6-methylimidazo[1,2-a]pyrazin-2-yl)-7-(piperazin-1-yl)-1H-isochromen-1-one] here?
Answer: ≤ 0.1 µM

Question: What about the “EC1.5x for Smn protein expression” value (Smn protein) of the same compound?
Answer: **** (an EC1.5×≦0.3 nM is indicated by four stars (****))

Question: And the “maximum fold (Fold) increase” value (Smn protein)?
Answer: ***** (a fold increase >1.65 is indicated by five stars (*****))

Question: Which results are given for `Cc1cn2cc(-c3cc4ccc(N5CCN6CCC[C@@H]6C5)cc4c(=O)o3)nc2c(C)n1` [Cpd 70, 3-(6,8-dimethylimidazo[1,2-a]pyrazin-2-yl)-7-[(8aR)-hexahydropyrrolo[1,2-a]pyrazin-2(1H)-yl]-1H-isochromen-1-one]?
Answer: EC (1.5-fold) [1]: 0.1 to 0.3 µM; EC1.5x for Smn protein expression (Smn protein): *** (an EC1.5× between >0.3 nM and ≦1 nM is indicated by three stars (***)); maximum fold (Fold) increase of Smn protein (Smn protein): **** (a fold increase between >1.5 and ≦1.65 is indicated by four stars (****))

Question: For `Cc1cn2cc(-c3cc4ccc(N5CCNCC5)cc4c(=O)o3)nc2c(C)n1` [Cpd 62, 3-(6,8-dimethylimidazo[1,2-a]pyrazin-2-yl)-7-(piperazin-1-yl)-1H-isochromen-1-one], which EC (1.5-fold) [1] is on record?
Answer: ≤ 0.1 µM

Question: What about the “EC1.5x for Smn protein expression” value (Smn protein) of the same compound?
Answer: **** (an EC1.5×≦0.3 nM is indicated by four stars (****))

Question: What about the “maximum fold (Fold) increase” value (Smn protein) of the same compound?
Answer: ***** (a fold increase >1.65 is indicated by five stars (*****))

Question: With `Cc1cn2cc(-c3cc4ccc(N5C[C@@H](C)N(C6CCC6)[C@@H](C)C5)cc4c(=O)o3)nc2cn1` [Cpd 132, 7-[(3R,5S)-4-cyclobutyl-3,5-dimethylpiperazin-1-yl]-3-(6-methylimidazo[1,2-a]pyrazin-2-yl)-1H-isochromen-1-one] as the compound, how does the EC (1.5-fold) [1] read?
Answer: ≤ 0.1 µM

Question: And the “EC1.5x for Smn protein expression” value (Smn protein)?
Answer: **** (an EC1.5×≦0.3 nM is indicated by four stars (****))

Question: And the “maximum fold (Fold) increase” value (Smn protein)?
Answer: ***** (a fold increase >1.65 is indicated by five stars (*****))
